Measured values from US20130137767A1, “Methods and Compositions for Treating Arthritis with Docosahexaenoic Acid” (DSM IP ASSETS B.V., priority 2010, published 2013).

Tested on: Collagen-Induced Arthritis (CIA)
Assay: CIA-EE (Example 1): paw, knee and six-joint histopathology
Format: in vivo, Male DBA/1O1aHsd mice
Conditions: day 45, vs OA-EE placebo, FIG. 4
Text: Male DBA/1O1aHsd mice (3.5-4 weeks of age) were randomized by weight and enrolled in the study after a three day quarantine in which animals were fed the AlN-93G diet with a modified base fat: 1 part flax seed oil (flax), 9 parts hydrogenated coconut oil (HCOC) and 21 parts high-oleic safflower oil (HO-SAFF). 15 animals were enrolled per study group, with the exception of the No Disease control that had 4 animals. Study groups consisted of:
The appropriate ethyl esters were blended into the base diet to provide approximately 2500 and 5000 mg/kg polyunsaturated fatty acid (PUFA) per day. The human equivalent doses (HED) were approximately 12 g/day and 22 g/day, respectively. The 2500 mg/kg EE diets contained the following fat blend: 1 part flax, 12 parts HCOC and 23 parts HO-SAFF. The 5000 mg/kg EE diets contained a fat blend consisting of: 1 part flax, 5 parts HCOC and 20 parts HO-SAFF. All study diets provided a total of 7% fat. Animals were fed study diets for approximately 30 days prior to the first collagen injection at day 0 and remained on the diets until study termination (day 45). Animals in the No Disease control and Dexamethasone groups were fed the diet containing OA-EE. Following a second collagen injection on day 21, arthritis severity was scored daily. Blood samples were collected at day 21 and day 45. Joints, 6 per an animal, were collected for histology and pathology on day 45.
Placebo-treated diseased animals had histopathology changes, consistent with those seen in type II collagen induced arthritis, in most joints, with scores ranging from normal to severe. Microscopic alteration included infiltration of synovium and periarticular tissue with neutrophils and mononuclear inflammatory cells (inflammation), marginal zone pannus and bone resorption and cartilage damage (proteoglycan loss, chondrocyte death and collagen matrix destruction). Four-paw, knee and joint parameters were assigned a quantitative score 0=normal, 1=minimal, 2=mild, 3=moderate, 4=marked, 5=severe and a total score was determined per animal.

CC/C=C\C/C=C\C/C=C\C/C=C\C/C=C\C/C=C\CCC(=O)OCC [DHA-EE]
knee histopathology parameters (2500 mg/kg): significantly reduced | paw histopathology parameters (inflammation, pannus, cartilage damage, bone damage) (2500 mg/kg): significantly reduced | six-joint mean histopathology parameters (2500 mg/kg): significantly reduced | paw histopathology parameters (inflammation, pannus, cartilage damage, bone damage) (5000 mg/kg): reduced paw histopathology scores | six-joint mean histopathology parameters (5000 mg/kg): significantly reduced
